Positions count from the first letter of the chain named.
How the values were obtained:
[1] = target: T1, human recombinant CblC wild type (Homo sapiens, UniProt Q9Y4U1); format: biochemical; conditions: for Product under ambient conditions, Wild type CblC: dealkylation, 5 mM GSH; for Half-life of beta-axial ligand removal, Wild type CblC: human, pH 7.6
T1 sequence (Q9Y4U1 1-282): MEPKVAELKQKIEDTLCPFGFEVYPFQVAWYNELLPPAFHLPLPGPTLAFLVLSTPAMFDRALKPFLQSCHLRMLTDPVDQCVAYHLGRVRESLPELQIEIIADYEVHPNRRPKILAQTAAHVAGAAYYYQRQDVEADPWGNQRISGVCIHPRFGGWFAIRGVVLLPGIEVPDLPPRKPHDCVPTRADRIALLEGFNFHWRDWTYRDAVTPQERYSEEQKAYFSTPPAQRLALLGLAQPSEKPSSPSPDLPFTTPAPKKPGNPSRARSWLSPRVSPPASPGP
Description: (§1) The ability of the newly synthesized Cbl derivatives to serve as substrates for CblC was examined (FIG. 12). CblC activity was measured by UV-visible spectroscopy according to published procedures. Analysis of reaction products was performed by mass spectrometry. We measured dealkylation and de-thiolation of Co—C and Co—S bonded Cbl derivatives, respectively, by wild type and mutant CblC proteins to determine whether these reactions could be supported in patients harboring an abnormal isoform of CblC with low or no enzymatic activity.
The enzymatic activity of CblC in the presence of CyaCbl and MPGCbl as substrates was evaluated under the same experimental conditions utilized to examine dealkylation of MeCbl and AdoCbl. […] The reaction was complete in less than 10 seconds, which is the time it takes to record the first spectrum after mixing of CblC-bound to CyaCbl or MPGCbl with 5 mM GSH (FIG. 12).
(§2) First, the ability of novel cobalamins described herein was tested to act as substrate for wild type CblC and to restore the lost activity of pathogenic variants, such as mutant Arg161Gly, that leads to early-onset form of the cblC disease.

[2] = target: T2, human recombinant CblC pathogenic mutant Arg161Gly (Homo sapiens, UniProt Q9Y4U1, R161G); format: biochemical; conditions: for Product under ambient conditions, Mutant Arg161Gly: dealkylation, 5 mM GSH; for Half-life of beta-axial ligand removal, Mutant Arg161Gly: human, pH 7.6
T2 sequence (Q9Y4U1 1-282 R161G): T1 sequence (Q9Y4U1 1-282) with R161G
Description: as §1, §2

SMILES	Product under ambient conditions, Wild type CblC [1]	Half-life of beta-axial ligand removal, Wild type CblC [1] [h]	Product under ambient conditions, Mutant Arg161Gly [2]	Half-life of beta-axial ligand removal, Mutant Arg161Gly [2] [h]
CC1=C2N=C(C=C3N=C(C(C)=C4[N-]C(C(CC(N)=O)C4(C)CCC(=O)NCC(C)OP(=O)([O-])OC4C(CO)OC(n5cnc6cc(C)c(C)cc65)C4O)C4(C)N=C1C(CCC(N)=O)C4(C)CC(N)=O)C(CCC(N)=O)C3(C)C)C(CCC(N)=O)C2(C)CC(N)=O.CCC[CH2][Co+2] (stereo not drawn) [BuCbl, butylcobalamin, reference compound]	H2OCbl	19.25	No reaction	0
CC1=C2N=C(C=C3N=C(C(C)=C4[N-]C(C(CC(N)=O)C4(C)CCC(=O)NCC(C)OP(=O)([O-])OC4C(CO)OC(n5cnc6cc(C)c(C)cc65)C4O)C4(C)N=C1C(CCC(N)=O)C4(C)CC(N)=O)C(CCC(N)=O)C3(C)C)C(CCC(N)=O)C2(C)CC(N)=O.CSC[CH2][Co+2] (stereo not drawn) [Me—S—EtCbl]	H2OCbl/Cob(II)alamin	0.125	Cob(II)alamin	0.192
CC1=C2N=C(C=C3N=C(C(C)=C4[N-]C(C(CC(N)=O)C4(C)CCC(=O)NCC(C)OP(=O)([O-])OC4C(CO)OC(n5cnc6cc(C)c(C)cc65)C4O)C4(C)N=C1C(CCC(N)=O)C4(C)CC(N)=O)C(CCC(N)=O)C3(C)C)C(CCC(N)=O)C2(C)CC(N)=O.CC[CH2][Co+2] (stereo not drawn) [PrCbl, propylcobalamin, reference compound]	H2OCbl	5.3	No reaction	0
